Measured values reported in patent publication US10577363B2, “Substituted piperidine compounds” (EPIZYME, INC., priority 2014, dated 2020).

Assays:
SMYD3 [1] = target: T1, SMYD3 (Homo sapiens (Human), UniProt Q9H7B4); experiment: SMYD3 cell assay (Trimethyl-MEKK2 In-Cell Western in 293T/17 cells); format: cell-based; details: read-out: SMYD3 Cell IC50*
Outline: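 In-Cell Western ratio of trimethyl-Lys260 MEKK2 to anti-flag signal; percent inhibition from DMSO and maximum-inhibition controls, IC50 by non-linear regression, triplicates.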

SMYD3 [2] = target: T1, SMYD3; experiment: SMYD3 biochemical assay (SPA, 3H-SAM methylation of MEKK2 protein substrate); details: read-out: SMYD3 Biochem IC50*
Outline: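 Tritium incorporation into GST-MEKK2 is counted by scintillation proximity after citric acid bead capture. Native human SMYD3 is preincubated with test compound for 30 min at room temperature at pH 8.0 (Tris-Cl, TCEP, BSG, Tween 20) before 3H-SAM and substrate are added; cold SAM at 100 uM final stops turnover.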

T1 sequence (Q9H7B4 whole entry): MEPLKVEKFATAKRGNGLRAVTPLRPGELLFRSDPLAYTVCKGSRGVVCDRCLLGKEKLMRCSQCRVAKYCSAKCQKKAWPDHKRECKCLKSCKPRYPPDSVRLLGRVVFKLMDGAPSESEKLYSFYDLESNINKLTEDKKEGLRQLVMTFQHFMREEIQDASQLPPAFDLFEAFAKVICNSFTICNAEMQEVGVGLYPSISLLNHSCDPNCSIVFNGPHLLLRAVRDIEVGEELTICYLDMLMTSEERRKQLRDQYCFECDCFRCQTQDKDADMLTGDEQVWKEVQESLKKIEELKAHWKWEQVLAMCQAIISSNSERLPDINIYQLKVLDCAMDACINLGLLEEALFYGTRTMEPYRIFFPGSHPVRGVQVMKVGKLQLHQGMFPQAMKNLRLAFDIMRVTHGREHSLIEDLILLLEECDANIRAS

Row | Compound | IC50 (SMYD3 [1]) | IC50 (SMYD3 [2])
1 | CN1CCC[C@H](S(=O)(=O)N2[C@@H]3CC[C@H]2C[C@@H](NC(=O)c2cc(C4CC4)on2)C3)C1 [compound 952, 5-cyclopropyl-N-((1R,3S,5S)-8-(((S)-1-methylpiperidin-3-yl)sulfonyl)-8-azabicyclo[3.2.1]octan-3-yl)isoxazole-3-carboxamide] | 281 nM | 56.2 nM
2 | O=C(N[C@H]1C[C@H]2CC[C@@H](C1)N2S(=O)(=O)c1ccc(CN2CCCC2)cc1)c1cc(C2CC2)on1 [compound 953, 5-cyclopropyl-N-((1R,3r,5S)-8-((4-(pyrrolidin-1-ylmethyl)phenyl)sulfonyl)-8-azabicyclo[3.2.1]octan-3-yl)isoxazole-3-carboxamide] | 585 nM | 57 nM
3 | CC[C@H]1C[C@@H](NC(=O)c2cc(C3CC3)on2)CCN1S(=O)(=O)CC1CCN(C)CC1 [compound 954, 5-cyclopropyl-N-((2S,4S)-2-ethyl-1-(((1-methylpiperidin-4-yl)methyl)sulfonyl)piperidin-4-yl)isoxazole-3-carboxamide] | 583 nM | 57.9 nM
4 | COCCN1C2CCC1CN(S(=O)(=O)N1[C@@H]3CC[C@H]1C[C@@H](NC(=O)c1cc(C4CC4)on1)C3)C2 [compound 955, 5-cyclopropyl-N-((1R,3r,5S)-8-((8-(2-methoxyethyl)-3,8-diazabicyclo[3.2.1]octan-3-yl)sulfonyl)-8-azabicyclo[3.2.1]octan-3-yl)isoxazole-3-carboxamide] | 373 nM | 59.2 nM
5 | O=C(N[C@H]1C[C@H]2CC[C@@H](C1)N2S(=O)(=O)C[C@H]1CCCN1)c1cc(C2CC2)on1 [compound 956, 5-cyclopropyl-N-((1R,3R,5S)-8-((((R)-pyrrolidin-2-yl)methyl)sulfonyl)-8-azabicyclo[3.2.1]octan-3-yl)isoxazole-3-carboxamide] | 733 nM | 59.6 nM
6 | C[C@H]1CN(S(=O)(=O)[C@H]2CC[C@@H](N(C)C)CC2)CC[C@H]1NC(=O)c1cc(C2CC2)on1 [compound 957, 5-cyclopropyl-N-((3S,4R)-1-(((1s,4R)-4-(dimethylamino)cyclohexyl)sulfonyl)-3-methylpiperidin-4-yl)isoxazole-3-carboxamide] | 512 nM | 69 nM
7 | O=C(N[C@H]1C[C@H]2CC[C@@H](C1)N2S(=O)(=O)N1CCC(Nc2ncccn2)CC1)c1cc(C2CC2)on1 [compound 958, 5-cyclopropyl-N-((1R,3r,5S)-8-((4-(pyrimidin-2-ylamino)piperidin-1-yl)sulfonyl)-8-azabicyclo[3.2.1]octan-3-yl)isoxazole-3-carboxamide] | 486 nM | 76.7 nM
8 | NCCc1ccc(S(=O)(=O)N2[C@@H]3CC[C@H]2C[C@@H](NC(=O)c2cc(C4CC4)on2)C3)cc1 [compound 959, N-((1R,3r,5S)-8-((4-(2-aminoethyl)phenyl)sulfonyl)-8-azabicyclo[3.2.1]octan-3-yl)-5-cyclopropylisoxazole-3-carboxamide] | ≥ 10000 nM | 79.7 nM
9 | C[C@H]1C[C@@H](NC(=O)c2cc(C3CC3)on2)CCN1S(=O)(=O)N1CCNC[C@H]1c1ccccc1 [compound 960, 5-cyclopropyl-N-((2S,4S)-2-methyl-1-(((R)-2-phenylpiperazin-1-yl)sulfonyl)piperidin-4-yl)isoxazole-3-carboxamide] | 1350 nM | 80.6 nM
10 | CN(CCC(F)(F)F)C1CCN(S(=O)(=O)N2[C@@H]3CC[C@H]2C[C@@H](NC(=O)c2cc(C4CC4)on2)C3)CC1 [compound 961, 5-cyclopropyl-N-((1R,3r,5S)-8-((4-(methyl(3,3,3-trifluoropropyl)amino)piperidin-1-yl)sulfonyl)-8-azabicyclo[3.2.1]octan-3-yl)isoxazole-3-carboxamide] | 364 nM | 81.6 nM
11 | CNC(C)(C)c1ccc(S(=O)(=O)N2[C@@H]3CC[C@H]2C[C@@H](NC(=O)c2cc(C4CC4)on2)C3)cc1 [compound 962, 5-cyclopropyl-N-((1R,3r,5S)-8-((4-(2-(methylamino)propan-2-yl)phenyl)sulfonyl)-8-azabicyclo[3.2.1]octan-3-yl)isoxazole-3-carboxamide] | 695 nM | 81.8 nM
